Measured values from article PMC5225172 (Cancer Chemotherapy and Pharmacology, 2016).

Assays:
[1] = Phase I safety and tolerability: adverse events (NCI CTCAE v4.03), DLT, MTD; conditions: human, in vivo, iv
Protocol: (§1) Dosing on days 8 and 15 was permitted within a window of ±1 day if necessary, and dosing was considered missed if delayed by more than 1 day. Dose delays of up to 2 weeks were permitted for day 1 of cycle 2 or later, although for days 8 and 15 of cycle 2 and subsequent cycles, dosing within a window of ±3 days was permitted, except for in cycle 3, where dosing was to be administered within ±1 day of days 8 and 15.
(§2) Patients were enrolled into cohort 1 and were evaluated for the occurrence of a dose-limiting toxicity (DLT) as defined by the National Cancer Institute Common Terminology Criteria for Adverse Events version 4.03. […] Completion of cycle 1 in cohort 1 constituted study completion.
(§3) Protocol-defined DLTs included non-hematologic adverse events of grade ≥3. Hyperglycemia defined as a DLT was to be determined based on serum glucose values. Hematologic DLTs were defined as grade 4 neutropenia for ≥3 days, an absolute neutrophil count <1000 with fever ≥38.5 °C, and grade 4 thrombocytopenia. Patients with non-hematologic DLTs were to discontinue study treatment.
(§4) Screening comprised: provision of written, informed consent; demographics; baseline characteristics; concomitant medications; safety assessments (adverse events [defined as any new finding not present in the patient’s medical history, or a worsening of a prior medical history finding], vital signs, laboratory tests, physical examination, 12-lead electrocardiogram, multigated acquisition scan, or echocardiogram); tumor measurements by computed tomography or magnetic resonance imaging; disease assessment as defined by RECIST version 1.1; ophthalmologic examination; chest computed tomography; and ECOG PS assessment. The following assessments were also performed on cycle 1, day 1: safety; ECOG PS assessment; concomitant medications; blood samples for PK analysis; serum samples for glucose analysis; serum insulin; urinalysis; serum ketones; and post-dose echocardiogram. Safety assessments, blood pressure measurements, blood sampling for PK analysis, and urinalysis were also performed on days 8 and 15 of cycle 1.

[2] = tested on: Japanese patients with advanced or refractory solid tumors; test: as above
Protocol: as §1, §2, §3, §4

COc1c(OCCCN2CCOCC2)ccc2c1N=C(NC(=O)c1cnc(N)nc1)N1CCN=C21 [copanlisib, Copanlisib]
MTD at 28 days [1]: 0.8 mg/kg | Treatment-emergent AE of all grades, irrespective of causality: Flu-like symptoms ([2]; Cohort 1, 0.4 mg/kg (n = 3)): 0 n (%) | Treatment-emergent AE of all grades, irrespective of causality: Flu-like symptoms ([2]; Cohort 2, 0.8 mg/kg (n = 7)): 2 (28.6) n (%) | Treatment-emergent AE of all grades, irrespective of causality: Flu-like symptoms ([2]; Total (N = 10)): 2 (20.0) n (%) | AEs leading to permanent discontinuation of study drug ([2]; human, in vivo): 2 (20.0) n (%) | Adverse events leading to study discontinuation ([2]; human, in vivo): 20.0% | Any AE ([2]; human, in vivo): 10 (100) n (%) | Any drug-related AE ([2]; human, in vivo): 10 (100) n (%) | Any serious AE ([2]; human, in vivo): 3 (30.0) n (%) | Grade 3 AE ([2]; human, in vivo): 5 (50.0) n (%) | Grade 3 drug-related AE ([2]; human, in vivo): 2 (20.0) n (%) | Grade 3 hypertension ([2]; human, in vivo): no reports of grade 3 hypertension | Grade 4 AE ([2]; human, in vivo): 1 (10.0) n (%) | Hematologic and biochemical toxicity event: anemia ([2]; human, in vivo): 90.0% | Hematologic and biochemical toxicity event: hypoalbuminemia ([2]; human, in vivo): 90.0% | Hematologic and biochemical toxicity event: lymphocytopenia ([2]; human, in vivo): 90% | TEAE of all grades irrespective of causality: constipation ([2]; human, in vivo): 50.0% | TEAE of all grades irrespective of causality: hyperglycemia ([2]; human, in vivo): 80.0% | TEAEs of grade 3 as worst grade ([2]; human, in vivo): 50.0% | TEAEs of grade 3 as worst grade considered drug-related ([2]; human, in vivo): 20.0% | Treatment-emergent AE of all grades, irrespective of causality: Acneiform rash ([2]; human, in vivo): 3 (30.0) n (%) | Treatment-emergent AE of all grades, irrespective of causality: Anemia ([2]; human, in vivo): 3 (30.0) n (%) | Treatment-emergent AE of all grades, irrespective of causality: Anorexia ([2]; human, in vivo): 3 (30.0) n (%) | Treatment-emergent AE of all grades, irrespective of causality: Constipation ([2]; human, in vivo): 5 (50.0) n (%) | Treatment-emergent AE of all grades, irrespective of causality: Cough ([2]; human, in vivo): 2 (20.0) n (%) | Treatment-emergent AE of all grades, irrespective of causality: Fever ([2]; human, in vivo): 4 (40.0) n (%) | Treatment-emergent AE of all grades, irrespective of causality: Hyperglycemia ([2]; human, in vivo): 8 (80.0) n (%) | Treatment-emergent AE of all grades, irrespective of causality: Hypertension ([2]; human, in vivo): 7 (70.0) n (%) | Treatment-emergent AE of all grades, irrespective of causality: Increased ALP ([2]; human, in vivo): 4 (40.0) n (%) | Treatment-emergent AE of all grades, irrespective of causality: Increased ALT ([2]; human, in vivo): 3 (30.0) n (%) | Treatment-emergent AE of all grades, irrespective of causality: Increased AST ([2]; human, in vivo): 2 (20.0) n (%) | Treatment-emergent AE of all grades, irrespective of causality: Insomnia ([2]; human, in vivo): 2 (20.0) n (%) | Treatment-emergent AE of all grades, irrespective of causality: Investigations, other ([2]; human, in vivo): 4 (40.0) n (%) | Treatment-emergent AE of all grades, irrespective of causality: Leukopenia ([2]; human, in vivo): 4 (40.0) n (%) | Treatment-emergent AE of all grades, irrespective of causality: Lymphocytopenia ([2]; human, in vivo): 4 (40.0) n (%) | Treatment-emergent AE of all grades, irrespective of causality: Malaise ([2]; human, in vivo): 2 (20.0) n (%) | Treatment-emergent AE of all grades, irrespective of causality: Nausea ([2]; human, in vivo): 3 (30.0) n (%) | Treatment-emergent AE of all grades, irrespective of causality: Neutropenia ([2]; human, in vivo): 4 (40.0) n (%) | Treatment-emergent AE of all grades, irrespective of causality: Oral mucositis ([2]; human, in vivo): 2 (20.0) n (%) | Treatment-emergent AE of all grades, irrespective of causality: Pruritus ([2]; human, in vivo): 2 (20.0) n (%) | Treatment-emergent AE of all grades, irrespective of causality: Tumor pain ([2]; human, in vivo): 4 (40.0) n (%) | AEs leading to dose modification ([2]; human, in vivo, 28 days): 1 (33.3) n (%) | Patients with dose-limiting toxicity (DLT) ([2]; human, in vivo, 28 days): No patients treated at 0.4 mg/kg experienced a dose-limiting toxicity | Cases of colitis ([2]; in vivo): no cases of colitis | Deaths on study ([2]; in vivo): No deaths on study were reported | Hematologic and biochemical toxicity event: hyperglycemia ([2]; in vivo): all ten patients | Hematologic and biochemical toxicity event: increased creatinine ([2]; in vivo): all ten patients | Patients with dose-limiting toxicity (DLT) ([2]; in vivo): No patients experienced DLTs | Patients with grade ≥3 elevated aminotransferase levels ([2]; in vivo): Two patients | Relationship to study drug: grade 3 Anemia ([2]; in vivo): Not likely to be related
